The values that follow come from PMC9227096, “Design, Synthesis, and In Vitro, In Silico and In Cellulo Evaluation of New Pyrimidine and Pyridine Amide and Carbamate Derivatives as Multi-Functional Cholinesterase Inhibitors” (Pharmaceuticals, 2022).

What all share (assay type): biochemical
For assay [1], the target named is T1, equine BChE (eqBChE) (Equus caballus, UniProt P81908).
T1 construct: purchased Sigma-Aldrich (Milan, Italy)
As to the kind of experiment: Inhibition constant and mechanism vs. eqBChE by Dixon's method. The settings on record: inhibitor 200-1800 nM, acetylthiocholine 100-300 µM; for Ki: eqBChE, read-out: Ki ± SD. The protocol:
The recorded data were analysed with the enzyme kinetic module of SigmaPlot in order to find the best fitting model of inhibition, using the linear regression analysis. The reference kinetic models used in the regression analysis were: competitive, non-competitive, uncompetitive and mixed. Each determination was repeated five times and incorrect values were discarded to reduce the standard deviation to within the limit of 5%. In this way, the regression lines obtained have a linear regression coefficient (R^2) higher than 0.98. […] The Dixon’s plots of tested compounds are reported in the Supplementary Materials (Figures S1 and S2).
The constant and the mechanism of inhibition vs. eqBChE were determined for the compounds 12 and 14. For each compound a 500 μM stock solution was prepared in H2O/DMSO and diluted in water to prepare solutions of opportune concentrations (10, 30 and 60 μM) in order to introduce the cuvette volumes ranging from 60 to 100 μL to obtain the desired final concentrations (200–1800 nM). The maximum amount of DMSO used for the preparation of the stock solution was calculated in order to obtain a DMSO content in cuvette of <0.033%.
An amount of 3.0 mL of 0.1 M phosphate buffer (pH = 7.4), containing DTNB (0.25 mM) and eqBChE (0.083 UmL^−1), were mixed with the opportune volume of inhibitor, to obtain, in the cuvette, a final inhibitor concentration between 200 and 1800 nM. With this solution the blank was made. […]. The absorbance variations were measured at 412 nm at 25 °C between 0.5 and 1.5 min.
In order to determine the inhibition constants (Ki) and inhibition mechanism the rates of hydrolysis at three different concentrations of substrate in the presence of five different concentration of inhibitor were measured. The recorded data were analyzed by the enzyme kinetic module of SigmaPlot (version 8.02), plotting the reciprocal of rate of hydrolysis (1/v, min/μM) vs. the concentration of inhibitor (nM), according to Dixon’s method in order to find the best fitting model of inhibition, as indicated by calculated linear regression coefficient R^2.

Assay [2] concerns the target T1, equine BChE (eqBChE). As to the kind of experiment: Reversibility of inhibition vs. eqBChE (ultrafiltration and washing). The settings on record: for inhibition at 5.4 µM: compound 18 5.4 µM, eqBChE 1.25 U. The method, then:
Moreover, it was evaluated whether the inhibition mechanism of carbamate 18 towards eqBChE is reversible, irreversible or pseudo-irreversible. For this purpose, the percentages of inhibition were determined both after one hour of the incubation of compound 18 (5.4 µM) with eqBChE (1.25 U), both following the removal of the inhibitor and the washing of the enzyme, carried out through ultrafiltration devices for the concentration of biological samples [35, 36]. To validate the method, the same study was performed with carbaryl (54 µM), a known carbamoylating cholinesterase inhibitor.
After the incubation phase, the solution containing the inhibitor not bound to the enzyme was removed by centrifugation, retaining eqBChE on the membrane of the ultrafiltration devices. Then the enzyme was washed with phosphate buffer, to remove the bound inhibitor and to restore the enzyme activity.
Three solutions were prepared in 0.1 M phosphate buffer (pH = 7.4), containing eqBChE (0.50 UmL^−1), DTNB (0.3 mM) and acetylthiocholine (10 mM), respectively. A solution of compound 18 in DMSO (2.7 mM) was prepared. Then six Vivaspin® were used: • three were prepared with 2.5 mL of eqBChE solution (0.50 UmL^−1) and 5 µL of inhibitor solution; • three were prepared with 2.5 mL of eqBChE solution (0.50 UmL^−1) and 5 µL of DMSO.
The Vivaspin® thus prepared were incubated for 1 h at 25 °C. After this time the percentage of inhibition was determined following the Ellman method. The blank was recorded by taking 500 µL from the Vivaspin® and diluting them in the cuvette in 2.5 mL of DTNB solution (0.3 mM). The reaction was activated by adding 30 μL of acetylthiocholine solution (10 mM), so as to obtain a final concentration of 100 µM in the cuvette. The absorbance variation was measured between 0.5 and 1.5 min at 412 nm, repeating the measurement for each of the six Vivaspin®.
After this procedure the first centrifugation of the Vivaspin® was carried out for 60 min at 4000 rpm and subsequently the solutions that crossed the membrane and settled in the filtrate tube were removed. In this way the solutions present in the concentrator body were concentrated up to 100 µL. To these solutions 1 mL of 0.1 M phosphate buffer (pH = 7.4) was added and the second centrifugation was carried out for 30 min at 4000 rpm. The solutions present in the concentrator body were concentrated up to 200 µL. The second washing was carried out, adding 1 mL of buffer and centrifuging for 30 min at 4000 rpm. The solutions present in the concentrator body were concentrated up to 250 µL. A third wash was carried out adding 1 mL of buffer and centrifuging for 50 min at 4000 rpm. The solutions present in the concentrator body were concentrated up to 150 µL. At this point, to recover the concentrated solution, the filtrate tube was removed, the concentrator body was turned upside down and inserted inside the concentrate recovery cap. The Vivaspin® was centrifuged for 10 min at 4000 rpm. After this time the recovered solution was taken up with 3 mL of DTNB solution (0.3 mM) and transferred into the cuvette: blank was recorded. The reaction was activated when 30 µL of substrate solution (10 mM) were added so as to have a final concentration of 100 µM in the cuvette. The absorbance variation between 0.5 and 1.5 min was measured at 412 nm, repeating the measurement for each of the recovered solutions.
As a positive control carbaryl was used, for which the same procedure was followed, using a 27 mM carbaryl stock solution in DMSO.

Assay [3] concerns the target T1, equine BChE (eqBChE). As to the kind of experiment: Determination of IC50 vs. eqBChE. The settings on record: IC50 ± SE, 100 µM acetylthiocholine, compound 18 after incubation for 1 h. The protocol:
The recorded data were analyzed with the enzyme kinetic module of SigmaPlot (Systat Software, Palo alto, CA, USA). Each measurement was replicated three times and the IC50 value obtained was confirmed by repeating the experiment twice. […] The IC50 plot of the tested compound is reported in the Supplementary Materials (Figure S3).
The recorded data were analyzed by the enzyme kinetic module of SigmaPlot, plotting the percentages of inhibition as a function of the different concentrations of inhibitor, expressed in logarithmic scale, in order to obtain the sigmoid graph, from which it was possible to determinate the IC50 value of the tested compound. The IC50 value was confirmed by repeating the experiment twice.

Each structure is given as a SMILES string. Like-named read-outs stand apart in the source and are kept apart here.

T1 sequence (P81908 whole entry): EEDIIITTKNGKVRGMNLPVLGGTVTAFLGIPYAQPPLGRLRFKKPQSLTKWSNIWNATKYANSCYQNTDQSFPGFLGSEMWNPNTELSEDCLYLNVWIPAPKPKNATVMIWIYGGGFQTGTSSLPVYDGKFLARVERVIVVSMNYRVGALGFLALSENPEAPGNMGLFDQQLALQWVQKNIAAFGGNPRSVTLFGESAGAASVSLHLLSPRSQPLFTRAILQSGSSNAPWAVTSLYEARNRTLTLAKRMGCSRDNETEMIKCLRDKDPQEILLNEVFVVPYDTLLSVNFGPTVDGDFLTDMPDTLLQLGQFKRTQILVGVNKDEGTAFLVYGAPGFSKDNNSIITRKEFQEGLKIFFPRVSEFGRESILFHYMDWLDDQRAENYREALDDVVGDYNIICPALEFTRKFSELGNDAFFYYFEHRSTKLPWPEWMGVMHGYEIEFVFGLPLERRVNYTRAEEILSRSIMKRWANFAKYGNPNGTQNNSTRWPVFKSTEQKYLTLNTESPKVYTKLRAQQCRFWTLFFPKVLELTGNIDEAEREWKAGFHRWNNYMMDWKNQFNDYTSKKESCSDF

`O=C(NCCCCCCNc1ccccn1)c1ccccc1` [Compound 12, N-(6-(pyridin-2-ylamino)hexyl)benzamide]: at equine BChE (eqBChE) [1], the Ki (usually the dissociation constant of the complex between target and ligand, obtained from inhibition or displacement) worked out at 2.99 ± 0.19 µM; the “Mechanism of inhibition on eqBChE” value is recorded as “Competitive”.
On to `O=C(Cc1ccc(Oc2ccccc2)cc1)NCCCCCCNc1ccccn1` [Compound 14, 2-(4-phenoxyphenyl)-N-(6-(pyridin-2-ylamino)hexyl)acetamide], for which, on equine BChE (eqBChE) [1], the inhibition constant Ki came out at 0.621 ± 0.043 µM and the “Mechanism of inhibition on eqBChE” value is given as “Competitive”.
Consider `O=C(NCCCCCCNc1ccccn1)Oc1ccccc1` [Compound 18, Phenyl (6-(pyridin-2-ylamino)hexyl)carbamate], for which the inhibition (usually the drop in the measured response relative to a control, in per cent) at 5.4 µM at equine BChE (eqBChE) [2] (after ultrafiltration and washing with phosphate buffer, read-out: percentage of inhibition of eqBChE after removal of inhibitor and washing of the enzyme) was 56.7%; on equine BChE (eqBChE) [2] (before washing, read-out: percentage of inhibition of eqBChE after one hour of incubation), 89.7%. In addition, at equine BChE (eqBChE) [2] (from restoration of enzymatic activity after washing), the “inhibition mechanism towards eqBChE (reversible, irreversible or pseudo-irreversible)” value is recorded as “pseudo-irreversible”. At equine BChE (eqBChE) [3], 0.454 µM corresponded to half-maximal inhibition (IC50).
